Test results taken from US9504669B2, “Spliceostatin analogs and methods for their preparation” (PFIZER INC., priority 2012, dated 2016).

Experiments:
[1] = test system: N87 (gastric cancer) cells; experiment: In vitro cell assay (MTS cell viability), N87; type: cell-based; details: 96 h, free compounds (natural products and synthetic analogs); cell viability 96 hours after treatment
Protocol: (§1) Target expressing (BT474 (breast cancer), N87 (gastric cancer), HCC1954 (breast cancer), MDA-MB-361-DYT2 (breast cancer)) or non-expressing (MDA-MB-468) cells were seeded in 96-well cell culture plates for 24 hours before treatment. Cells were treated with 3-fold serially diluted antibody-drug conjugates or free compounds (i.e., no antibody conjugated to the drug) in duplicate at 10 concentrations. Cell viability was determined by CellTiter 96® AQueous One Solution Cell Proliferation MTS Assay (Promega, Madison Wis.) 96 hours after treatment. Relative cell viability was determined as percentage of untreated control. IC50 values were calculated using a four parameter logistic model #203 with XLfit v4.2 (IDBS, Guildford, Surry, UK). The potency ranged upward from 0.0002 nm. Similar procedures and techniques were employed.

[2] = test system: MDA-MB-361-DYT2 (breast cancer) cells; experiment: In vitro cell assay (MTS cell viability), MDA-MB-361-DYT2; type: cell-based; details: 96 h, free compounds (natural products and synthetic analogs); cell viability 96 hours after treatment
Protocol: as §1

Row | SMILES | IC50 [1] [nM] | IC50 [2] [nM]
1 | CCCNC(=O)C[C@@H]1C[C@@](O)(CCl)[C@H](O)[C@@H](/C=C/C(C)=C/C[C@@H]2O[C@H](C)[C@H](NC(=O)/C=C\[C@H](C)OC(C)=O)C[C@@H]2C)O1 [#B286, (1S,5R)-5-{(1E,3E)-5-[(2S,3S,5R,6R)-5-{[(2Z,4S)-4-(acetyloxy)pent-2-enoyl]amino}-3,6-dimethyltetrahydro-2H-pyran-2-yl]-3-methylpenta-1,3-dien-1-yl}-1,5-anhydro-3-C-(chloromethyl)-2-deoxy-1-[2-oxo-2-(propylamino)ethyl]-D-erythro-pentitol] | 0.387 | 1.11
2 | COC(=O)C[C@@H]1C[C@@]2(CO2)[C@H](OC)[C@@H](/C=C/C(C)=C/C[C@@H]2O[C@H](C)[C@H](NC(=O)/C=C\[C@H](C)OC(C)=O)C[C@@H]2C)O1 [#B265, methyl [(3R,5S,7R,8R)-7-{(1E,3E)-5-[(2S,3S,5R,6R)-5-{[(2Z,4S)-4-(acetyloxy)pent-2-enoyl]amino}-3,6-dimethyltetrahydro-2H-pyran-2-yl]-3-methylpenta-1,3-dien-1-yl}-8-methoxy-1,6-dioxaspiro[2.5]oct-5-yl]acetate] | 10.2 | 8.67
3 | CCCNC(=O)C[C@@H]1C[C@@](O)(CCl)C[C@@H](/C=C/C(C)=C/C[C@@H]2O[C@H](C)[C@H](NC(=O)/C=C\[C@H](C)OC(C)=O)C[C@@H]2C)O1 [#B285, (2S,3Z)-5-({(2R,3R,5S,6S)-6-[(2E,4E)-5-{(2S,4S,6S)-4-(chloromethyl)-4-hydroxy-6-[2-oxo-2-(propylamino)ethyl]tetrahydro-2H-pyran-2-yl}-3-methylpenta-2,4-dien-1-yl]-2,5-dimethyltetrahydro-2H-pyran-3-yl}amino)-5-oxopent-3-en-2-yl acetate] | 7.61 | 11.7
4 | COC(=O)C[C@@H]1C[C@@]2(CO2)[C@H](OC)[C@@H](/C=C/C(C)=C/C[C@@H]2O[C@H](C)[C@H](NC(=O)/C=C\[C@H](C)O)C[C@@H]2C)O1 [#B264, methyl [(3R,5S,7R,8R)-7-{(1E,3E)-5-[(2S,3S,5R,6R)-5-{[(2Z,4S)-4-hydroxypent-2-enoyl]amino}-3,6-dimethyltetrahydro-2H-pyran-2-yl]-3-methylpenta-1,3-dien-1-yl}-8-methoxy-1,6-dioxaspiro[2.5]oct-5-yl]acetate] | > 100 | > 100
5 | CC(/C=C/[C@H]1O[C@H](CC(=O)NN)C[C@@]2(CO2)[C@@H]1O)=C\C[C@@H]1O[C@H](C)[C@H](NC(=O)/C=C\[C@H](C)O)C[C@@H]1C [#B209, (2Z,4S)—N-[(2R,3R,5S,6S)-6-{(2E,4E)-5-[(3R,4R,5R,7S)-7-(2-hydrazinyl-2-oxoethyl)-4-hydroxy-1,6-dioxaspiro[2.5]oct-5-yl]-3-methylpenta-2,4-dien-1-yl}-2,5-dimethyltetrahydro-2H-pyran-3-yl]-4-hydroxypent-2-enamide] | 60.6 | > 100
6 | CNNC(=O)C[C@@H]1C[C@@]2(CO2)[C@H](O)[C@@H](/C=C/C(C)=C/C[C@@H]2O[C@H](C)[C@H](NC(=O)/C=C\[C@H](C)OC(C)=O)C[C@@H]2C)O1 [#B143, (2S,3Z)-5-({(2R,3R,5S,6S)-6-[(2E,4E)-5-{(3R,4R,5R,7S)-4-hydroxy-7-[2-(2-methylhydrazinyl)-2-oxoethyl]-1,6-dioxaspiro[2.5]oct-5-yl}-3-methylpenta-2,4-dien-1-yl]-2,5-dimethyltetrahydro-2H-pyran-3-yl}amino)-5-oxopent-3-en-2-yl acetate] | 2.43 | 9.51
7 | CCCNC(=O)NC[C@@H]1C[C@@]2(CO2)[C@H](O)[C@@H](/C=C/C(C)=C/C[C@@H]2O[C@H](C)[C@H](NC(=O)/C=C\[C@H](C)OC(C)=O)C[C@@H]2C)O1 [#B242, (2S,3Z)-5-{[(2R,3R,5S,6S)-6-{(2E,4E)-5-[(3R,4R,5R,7S)-4-hydroxy-7-{[(propylcarbamoyl)amino]methyl}-1,6-dioxaspiro[2.5]oct-5-yl]-3-methylpenta-2,4-dien-1-yl}-2,5-dimethyltetrahydro-2H-pyran-3-yl]amino}-5-oxopent-3-en-2-yl acetate] | 0.57 | 3.76
